# Measurements as given in US9801373B2, “Compounds for alleviating phosphate starvation symptoms in plants” (Commissariat a l'Energie Atomique et aux Energies …, priority 2012, dated 2017).
# Key:
# Assay type in all cases: in vivo, Arabidopsis thaliana
# [1] = tested on: lpr1 mutant; test: Shoot growth of lpr1 mutant; conditions: −Pi, FIG. 11
# Experimental: In the Pi deficient medium, NaCl (0.5 mM) was used to replace the equivalent amount of sodium provided by NaH2PO4. For controls of the effects of the compounds, 1% of DMSO (Dimethyl sulfoxid, SIGMA, 472301), solvent for the tested compounds, was added. After 2 days at 4° C., the plates were placed in a vertical position and plants were grown in a culture chamber under a 16 h light/8 h dark regime (24/21° C., 150 μE m^−2s^−1). For 4 weeks culture, large plates (24×24 cm) were placed in a horizontal position. Root architecture and aerial part area were quantified using program ImageJ.
# [2] = tested on: anthocyanin accumulation; test: Anthocyanins content; conditions: FIG. 10 (C)
# Experimental: Lipids and anthocyanins were analyzed as previously described by Jouhet (2003) and Ticconi (2001).
# [3] = tested on: PAP12, PAP17 and PAP22 genes; test: Expression of acid phosphatase (PAP) genes; conditions: −Pi
# Experimental: Plant RNA was extracted with the RNeasy kit (QIAGEN, France). For transcriptome data, RNA were analysed by the CATMA technology (Complete Arabidopsis Transcriptome Microarray). For qPCR, poly(dT) cDNA were prepared from 500 ng total RNA with Superscript III reverse transcriptase (Invitrogen, France) and analysed on a LightCycler 480 apparatus (Roche Diagnostics, France) with the SYBR Green I Master kit (Roche Diagnostics, France) according to the manufacturer's instructions. Targets were quantified with specific primer pairs designed with Primer3 website (http://frodo.wi.mit.edu/primer3/) (see Table II below). Biological triplicates were performed for all experiments. Expression levels were normalized using At2g16600, At3g04120, At1g35160 and At1g32050 genes.
# [4] = tested on: starch accumulation; test: Starch staining with lugol; conditions: FIG. 10 (D)
# Experimental: Starch staining was performed according to Zakhleniuk et al. (2001). Aerial part of plants was placed 6 h in EtOH 90% before to be iodine stained for 30 min in lugol (lugol solution; Sigma, France) and washed several times in water.
smiles,measurement,setting,value
O=c1c(Sc2ccc(Cl)cc2)c(Sc2ccc(Cl)cc2)c1=O [PTN1],anthocyanins accumulation in leaves of lpr1,[1],substantially suppressed this accumulation
same,"anthocyanin accumulated, less than control grown on −Pi",[2],around 60%
same,"expression level of PAP12, PAP17 and PAP22 genes",[3],reduced the expression level
same,starch accumulation,[4],severely attenuated
